Experimental data as given in PubChem BioAssay AID2305 (GlaxoSmithKline (GSK), 2010).

system: P. falciparum 3D7 growth, pLDH absorbance; assay: P. falciparum 3D7 growth inhibition, dose response, strain 3D7 (AID 2305)

SMILES | IC50
CCCNCc1ccc(-c2ccc(CN(CCOC)C(=O)CCC(=O)c3ccc(OC)c(F)c3)cc2)nc1 | 680 nM
COc1ccc(OCCCN2CCN(CC(c3ccc(F)cc3)N3CCN(C(C)C)CC3)CC2)c2ccccc12 (stereo unspecified) | 650 nM
CC(=O)c1ccc(NC(=O)C2c3ccccc3C(=O)N(CC(C)C)C2c2cccs2)cc1 (stereo unspecified) | 1320 nM
O=C(NC1CCC(CN2CCC(c3c[nH]c4ccccc34)CC2)CC1)c1csc(-c2cccc(Cl)c2Cl)n1 (stereo unspecified) | 1730 nM
CC(C)CNCc1ccc(OCc2cccc(COc3ccc(CNCC(C)C)cc3I)c2)c(I)c1 | 770 nM
FC(F)(F)COc1ccc(CCNCCCCNCCc2ccc(OCC(F)(F)F)c3ccccc23)c2ccccc12 | 650 nM
Cc1cc(Nc2ccc(O)cc2)nc2cccc(O)c12 | 740 nM
Cc1cc(N)cc2[nH]c(-c3ccc(N)cc3)nc12 | 890 nM
CC(C(=O)N1CCCC1)N1CCN(S(=O)(=O)c2ccc(C(C)(C)C)cc2)CC1 (stereo unspecified) | 640 nM
COCc1nc(N)nc(N)c1-c1ccc(Cl)c(Cl)c1 | 1020 nM
CCCc1nc2c(N3CC(NC(=O)/C=C/c4ccccc4)C3)cccc2n1C1CC1 | 550 nM
CC(C)Nc1nc(NCCc2cnc[nH]2)nc(Nc2ccc(Oc3ccccc3)cc2)n1 | 890 nM
Cc1ccc(NC(=O)c2ccc3ncccc3c2)cc1OC1CCN(Cc2ccc(F)cc2)C1 (stereo unspecified) | 1360 nM
COc1cccc(-c2csc(C(=O)NC3CCCCN(Cc4ccc(C(C)(C)C)cc4)C3)c2)c1 (stereo unspecified) | 890 nM
CCCCC(CC)NC(=O)[C@H]1CNCCN1C(=O)CCCc1ccccc1 (stereo partly specified) | 890 nM
CCn1c(CN2CCC(C)CC2)nc2cc(NC(=O)c3cccs3)ccc21 | 560 nM
CCOc1ccc(OCC)c(N2CCN(CCCCNC(=O)c3ccc(NC(=O)c4ccc(Cl)cc4)cc3)CC2)c1 | 590 nM
CCCc1cc(Cc2cnc(N)nc2N)ccc1OCCCCCC(=O)OCC | 500 nM
CCNc1cc(C(=O)N[C@@H](Cc2ccccc2)[C@H](O)CNC(C)CCCC(C)C)cc(N2CCCS2(=O)=O)c1 (stereo partly specified) | 220 nM
O=C(Nc1ccc(SC(F)(F)F)cc1)Nc1ccc(Cl)c(Cl)c1 | 910 nM
CCCCc1ccc2[nH]cc(C3=CCN(C)CC3)c2c1Br | 630 nM
C=C(NC(=O)c1cc(C)cc(C)c1)C(=O)OC | 170 nM
COc1ccc(CCNc2nc(NCCc3cnc[nH]3)nc(NCc3cccc4ccccc34)n2)cc1OC | 540 nM
CC(=O)Nc1ccc(OCCCN(Cc2ccccc2C(F)(F)F)c2ccc(C(F)(F)F)c(C#N)c2)c(Cl)c1 | 1450 nM

SMILES | IC50
Cc1cc(OCCCN2CCCCC2C)ccc1NC(=O)COc1ccc(Cl)cc1C(=O)c1cc(Cl)cc(C#N)c1 (stereo unspecified) | 980 nM
COc1cccc(OC2CCN(C(=O)c3ccc(-c4ccc(N5CCCC5=O)cc4C)cc3)CC2)c1 | 1010 nM
COc1ccc(NC(=O)Nc2ccc(-c3ccncc3)c(Cl)c2)cc1N1CCN(C)CC1 | 760 nM
FC(F)(F)c1ccc2nc(-c3cccc(-c4ccc(CNCCN5CCNCC5)cc4)c3)[nH]c2c1 | 860 nM
CC(C)(C)c1ccc(S(=O)(=O)Nc2ccccc2Cn2nc(N3CCNCC3)ccc2=O)cc1 | 850 nM
O=C(Nc1ccc(I)cc1)N1CCc2sccc2C1CN1CCCCC1 (stereo unspecified) | 1200 nM
CC(=O)c1cccc2c(NC(=O)Nc3ccc4nccc(N5CCN(C)CC5)c4c3)cccc12 | 400 nM
NS(=O)(=O)c1cccc(Nc2nccc(-c3c(-c4cccc(NC(=O)c5c(F)cccc5F)c4)nn4ccccc34)n2)c1 | 70 nM
O=C(NC1CCN(c2ncc(C(F)(F)F)cc2Cl)CC1)c1cccs1 | 900 nM
COc1ccc(C2CC(=O)C3=C(C2)NC(C)=C(C(=O)OC(C)C)C3c2c(F)cccc2Cl)cc1OC (stereo unspecified) | 820 nM
CCCCCCCC/C=C\CCCCCCCC(=O)NCc1ccc(O)c(OC)c1 | 400 nM
CCOc1cc(C(=O)NCCCN2CCN(c3cccc(Cl)c3)CC2)ccc1-c1nc2cc(Cl)c(F)cc2[nH]1 | 870 nM
c1ccc(CNCc2ccc(-c3cccc(-c4nc5ccccc5[nH]4)c3)cc2)cc1 | 420 nM
CN(CCCNCc1ccc2ccccc2c1)CCCNCc1ccc2ccccc2c1 | 390 nM
O=C(Nc1ccc(C(F)(F)F)cc1)NC1CCN(CCCCCNC(=O)[C@@H]2C[C@H]2c2ccc(Cl)c(Cl)c2)CC1 | 630 nM
O=C(NCCCCN1CCN(c2cccc3ccccc23)CC1)c1ccc(NC(=O)c2ccc(Cl)cc2)cc1 | 360 nM
CCCC1N=C(N)N=C(N)N1c1ccc(Cl)cc1 (stereo unspecified) | 50 nM
COc1ccc(S(=O)(=O)NCCCC2CCN(CCCCCNC(=O)C=Cc3ccc(Cl)c(Cl)c3)CC2)cc1 | 1040 nM
Cc1cc(N2CCN(CC3CCN(C)CC3)CC2)nc(Nc2ccc(Cl)cc2)n1 | 700 nM
O=C(C=Cc1ccc(Cl)c(Cl)c1)NCCCCCN1CCC(CCCNS(=O)(=O)c2ccc(F)cc2)CC1 | 1020 nM
COc1ccccc1NC(=S)N/N=C/c1ccc(O)cc1O | 1020 nM
COc1ccc2nc(NC3=NC(c4ccccn4)(c4ccccn4)C(=O)N3C)[nH]c2c1 | 590 nM
O=S(=O)(NCCN1CCCC1)c1cccc(-c2cccc(CNCCc3cccs3)c2)c1 | 750 nM
CCOc1cc(C(C)C)ccc1C1CCN(CCCCNC(=O)c2ccc(NC(=O)c3ccc(Cl)cc3)cc2)CC1 | 810 nM

SMILES | IC50
Nc1nc(N)c2cc(Cc3ccccc3Cl)cnc2n1 | 110 nM
CCCCCN1CCCC1CNS(=O)(=O)c1ccc(C(=O)Nc2cccc(C(F)(F)F)c2)cc1 (stereo unspecified) | 1060 nM
Cc1cccc2[nH]c(-c3ccc(-c4ccc(NC(=O)C(C)CN(C)C)cc4)s3)nc12 (stereo unspecified) | 410 nM
Cc1cccc2[nH]c(-c3cccc(-c4cccc(NC(=O)NCc5cccc(F)c5)c4)c3)nc12 | 450 nM
CCCCCN1CCC(NS(=O)(=O)c2ccc(C(=O)Nc3cccc(C(F)(F)F)c3)cc2)C1 (stereo unspecified) | 1000 nM
COc1ccc(NC(=O)CCNc2cc(C)nc(NCCc3ccc(F)cc3)n2)cc1 | 850 nM
c1cc(-c2nc3ccccc3[nH]2)nc(-c2nc3ccccc3[nH]2)c1 | 1120 nM
COc1ccc2nccc([C@@H](O)CN3CCC(NCc4ccc5c(n4)NCCC5)CC3)c2c1 | 740 nM
Cc1cccc2[nH]c(-c3ccc(-c4ccc(CN5CCN(CCN6CCOCC6)CC5)cc4)cc3)nc12 | 230 nM
O=C(O)C1CC(=O)N(c2ccc(Cl)cc2)C1 (stereo unspecified) | 220 nM
C[C@@H](CNc1ccnc(Nc2ccc3[nH]c(=O)[nH]c3c2)n1)c1ccccc1 | 1100 nM
c1ccc(CN2CCC(Nc3ccc(-c4cn[nH]c4-c4ccccn4)nc3)CC2)cc1 | 800 nM
Cc1cc(NC(=O)NCCN2CCC(NS(=O)(=O)c3ccccc3Cl)C2)c2ccccc2n1 (stereo unspecified) | 820 nM
CC(=O)Nc1cccc(CNCc2ccc(-c3cnc(N4CCCC(C)(C)C4)nc3)cc2)c1 | 820 nM
Oc1cc(-c2nc(-c3ccccc3)[nH]c2-c2ccncc2)ccc1Cl | 810 nM
O=C(NCCCCCN1CCC(c2c[nH]c3ccccc23)CC1)Nc1ccc(I)cc1 | 990 nM
Nc1nonc1-c1nc2c(-c3cccc(Cl)c3)nccc2n1CCCNC(=O)Cc1ccc(Cl)cc1 | 270 nM
CN1CCN(c2ccc(Nc3ccnc4ccc(-c5ccccc5)cc34)cc2)CC1 | 90 nM
O=C(Nc1cccc(C(F)(F)F)c1)c1cccc2[nH]c(C(F)(F)F)nc12 | 640 nM
COc1cc(NC(=O)c2sc(-c3ccc(Cl)cc3)cc2NC(=O)c2cccnc2)ccc1OCCN1CCCC1 | 380 nM
Cc1cc(N2CCCC2)nc(Nc2ccc(NC(=O)c3ccccc3C)cc2)n1 | 720 nM
COc1cccc(CN2Cc3ccccc3OC3(CCN(Cc4c[nH]c5cnccc45)CC3)C2)c1 | 1300 nM
CCOc1cc(Cl)c(C(C)NC(=O)c2cccc(OC)c2)cc1OCC (stereo unspecified) | 960 nM
